Some test systems named below: ACHN renal; CCRF-CEM leukemia; COLO 205 colon; HCC-2998 colon; MDA-MB-435; OVCAR-4 ovarian; RPMI-8226 leukemia; SK-MEL-5 melanoma; SNB-19 CNS; TK-10 renal.
Assay in all cases: NCI anticancer screen, dose series, 48 h

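96-well plates; 48 h exposure; 5 concentrations. Endpoints by linear interpolation between flanking doses. Not reached: highest tested concentration assigned. At the GI50, growth is halved. TGI marks complete inhibition of growth.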

`O=C(CC1(O)C(=O)Nc2c(Cl)ccc(Cl)c21)c1ccc(C2CC2)cc1` (stereo not drawn): the GI50 in the experiment with ACHN renal was 2.19 µM; with CCRF-CEM leukemia, 0.843 µM; in the experiment with COLO 205 colon it was 0.801 µM; with HCC-2998 colon, 1.85 µM; in the experiment with MDA-MB-435, 0.0882 µM; with OVCAR-4 ovarian it was 12.8 µM. The GI50 with RPMI-8226 leukemia was 0.87 µM; in the experiment with SK-MEL-5 melanoma it was 1.37 µM; in the experiment on SNB-19 CNS it was 1.13 µM; with TK-10 renal, 11.9 µM. The TGI with ACHN renal came out at 20.2 µM; in the experiment with CCRF-CEM leukemia it was 20.1 µM; in the experiment on COLO 205 colon, 3.06 µM; in the experiment on HCC-2998 colon, 18.2 µM; in the experiment on MDA-MB-435, 0.272 µM; with OVCAR-4 ovarian it was 32.2 µM. The TGI came out at 16.5 µM in the experiment with RPMI-8226 leukemia, 13.8 µM with SK-MEL-5 melanoma, 16.9 µM in the experiment with SNB-19 CNS and 29.1 µM with TK-10 renal.
Turning to `C[C@@H](Oc1cc(-c2cnn(C3CC4(CCCNC4)C3)c2)cnc1N)c1c(Cl)ccc(F)c1Cl` (stereo partly drawn), the GI50 with ACHN renal is 1.57 µM; with CCRF-CEM leukemia it was 0.936 µM; in the experiment with COLO 205 colon, 0.384 µM; in the experiment with HCC-2998 colon it was 1.51 µM; in the experiment on MDA-MB-435, 0.77 µM; with OVCAR-4 ovarian, 1.85 µM. Also, the GI50 is 1.9 µM in the experiment with RPMI-8226 leukemia, 1.5 µM with SK-MEL-5 melanoma, 3.32 µM with SNB-19 CNS and 2.02 µM with TK-10 renal. Further, the TGI with ACHN renal was found to be 4.49 µM; with CCRF-CEM leukemia it was 4.77 µM; in the experiment with COLO 205 colon, 1.5 µM; in the experiment with HCC-2998 colon, 3.14 µM; with MDA-MB-435, 2.18 µM; in the experiment with OVCAR-4 ovarian, 5.56 µM. In addition, the TGI in the experiment with RPMI-8226 leukemia is 5.05 µM; in the experiment on SK-MEL-5 melanoma, 2.87 µM; with SNB-19 CNS it was 14.4 µM; in the experiment with TK-10 renal it was 5.47 µM.
Consider `O=C1c2cccc3cc([N+](=O)[O-])cc(c23)C(=O)N1O`, for which the TGI in the experiment on ACHN renal is above 100 µM; with CCRF-CEM leukemia, above 100 µM; with COLO 205 colon, above 100 µM; in the experiment with HCC-2998 colon, 65.2 µM; in the experiment with MDA-MB-435 it was above 100 µM; in the experiment with OVCAR-4 ovarian, above 100 µM. Also, the TGI in the experiment on RPMI-8226 leukemia is above 100 µM; in the experiment on SK-MEL-5 melanoma, above 100 µM; in the experiment with SNB-19 CNS, above 100 µM; in the experiment with TK-10 renal, 83.6 µM.
As for `CN(C)CCOc1nc2ccccc2c2c1-c1ccc(Cl)cc1C2=O`, the GI50 in the experiment with ACHN renal is 0.419 µM; with CCRF-CEM leukemia it was 0.363 µM; in the experiment on COLO 205 colon, 0.443 µM; in the experiment with HCC-2998 colon it was 0.97 µM; with MDA-MB-435, 0.489 µM; in the experiment with OVCAR-4 ovarian, 0.927 µM. For the same molecule, the GI50 is 0.617 µM in the experiment with RPMI-8226 leukemia, 1.36 µM in the experiment on SK-MEL-5 melanoma, 0.46 µM in the experiment with SNB-19 CNS and 1.36 µM in the experiment with TK-10 renal. Also, the TGI in the experiment on ACHN renal turned out to be 1.72 µM; in the experiment with CCRF-CEM leukemia, 2.46 µM; in the experiment on COLO 205 colon, 1.72 µM; with HCC-2998 colon, 2.49 µM; in the experiment on MDA-MB-435, 1.88 µM; with OVCAR-4 ovarian, 4.04 µM. Moreover, the TGI is 2.35 µM with RPMI-8226 leukemia, 2.67 µM in the experiment with SK-MEL-5 melanoma, 2.14 µM in the experiment with SNB-19 CNS and 3.18 µM in the experiment with TK-10 renal.
With `CS(=O)(=O)c1nc(Cl)c(Cl)c(C#N)c1Cl`, the TGI in the experiment on ACHN renal was 5.26 µM; in the experiment on CCRF-CEM leukemia, above 100 µM; in the experiment on COLO 205 colon it was 3.08 µM; in the experiment on HCC-2998 colon, 29.8 µM; in the experiment with MDA-MB-435, 7 µM; in the experiment with OVCAR-4 ovarian it was 3.34 µM. The TGI with RPMI-8226 leukemia is 14.6 µM; with SK-MEL-5 melanoma, 15.5 µM; in the experiment on SNB-19 CNS it was 36 µM; with TK-10 renal, 5.91 µM.
Regarding `CC(=O)OCC(=O)C1(O)C(C)CC2C3C=C(C)C4=Cc5c(cnn5-c5ccccc5)CC4(C)C3C(O)CC21C` (stereo not drawn), the GI50 with ACHN renal is 2.16 µM; in the experiment with COLO 205 colon, 1.72 µM; with HCC-2998 colon it was 1.92 µM; in the experiment on MDA-MB-435, 2.33 µM; in the experiment with OVCAR-4 ovarian, 2.29 µM; in the experiment on RPMI-8226 leukemia, below 0.0345 µM. Moreover, the results for the GI50 in the experiment on SK-MEL-5 melanoma, with SNB-19 CNS and in the experiment on TK-10 renal were 1.45 µM, 2.31 µM and 2.13 µM, respectively. The TGI in the experiment on ACHN renal was 9.03 µM; in the experiment on CCRF-CEM leukemia it was above 100 µM; in the experiment with COLO 205 colon, 3.26 µM; in the experiment on HCC-2998 colon, 3.66 µM; in the experiment on MDA-MB-435, 7.33 µM; in the experiment on OVCAR-4 ovarian, 20 µM. The TGI in the experiment with SK-MEL-5 melanoma was determined as 2.87 µM; in the experiment with SNB-19 CNS, 11.9 µM; in the experiment on TK-10 renal, 9.73 µM.
Regarding `c1cnc2c(c1)Nc1cnncc1S2`, the TGI in the experiment on ACHN renal, with CCRF-CEM leukemia, with COLO 205 colon, with HCC-2998 colon, in the experiment on MDA-MB-435 and in the experiment on OVCAR-4 ovarian was above 100 µM in each case. Also, the TGI in the experiment on RPMI-8226 leukemia, in the experiment with SK-MEL-5 melanoma, with SNB-19 CNS and in the experiment on TK-10 renal was above 100 µM throughout.

(Values after PubChem BioAssay (NCI).)
